For orientation: MIC means the least concentration at which growth counts as inhibited.

Holding throughout (type): cell-based, Helicobacter pylori
The subject of one assay is H. pylori strain 26695. Nature of the assay: Growth curve method / MIC in liquid culture, strain 26695. The conditions noted are these: Helicobacter pylori. The essentials:
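Two-fold serial dilutions in BHI liquid medium with 10% FBS and 1% H. pylori Selective Supplement, inoculated at 10^4-10^5 CFU/ml (OD600=0.05); shaken 24 h at 37° C. under microaerophilic conditions (5% O2, 10% CO2, 85% N2). MIC from OD600 growth; viability confirmed by 4 h urease/phenol red colour change; triplicate.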

The next assay deals with H. pylori strain N6. Nature of the assay: Growth curve method / MIC, strain N6. The conditions noted are these: Helicobacter pylori. On the procedure:
(§1) The representative PNP inhibitor from H. pylori included in this study was immucillin A. The experiment was conducted using the growth curve method (two-fold serial dilutions in liquid medium). The tested H. pylori strains were cultured in Petri dishes with BHI solid medium supplemented with 10% FBS and 1% H. pylori Selective Supplement antibiotic kit, in anaerostats under microaerophilic conditions (5% 02, 10% CO2, 85% N2) at 37° C. for 3 days. Liquid culture of H. pylori was conducted overnight with shaking at 37° C. under microaerophilic conditions in BHI medium supplemented with 10% FBS and 1% H. pylori Selective Supplement antibiotic kit. Subsequently, for the essential experiment of determining the minimum inhibitory concentration (MIC), double strengthened liquid BHI medium was prepared, that is, supplemented with 20% FBS and a 2% set of H. pylori Selective Supplement antibiotics.
(§2) Bacterial proliferation inhibition experiments were carried out in 24-deep-well 2 ml flat-bottomed plates at a solution volume per well of 0.5 ml. In a single well, double strengthened (relative to the concentration planned for testing) solutions of the test inhibitor and double strengthened liquid BHI medium inoculated with H. pylori (10^4-10^5 CFU/ml in the final volume in the well, corresponding to the optical density of the culture OD600=0.05) were mixed together in a 1:1 ratio.
(§3) Kanamycin at a concentration of 25 μg/ml (Irie et al., 1997) was used as a positive control, while Mili-Q deionized water and BHI medium not inoculated with bacteria were used as negative controls. Plates were shaken at 37° C., under microaerophilic conditions. […] After 24 hours, the OD600 of samples containing the negative control, i.e. with Mili-Q deionized water, was about 1.2-1.4, corresponding to a bacterial concentration of about […].
(§4) In addition, the method proposed by Knezevic et al. (2018) was used to check whether the observed OD600 was from live bacterial cells. For this purpose, an equal volume of Christensen's double strength urea broth (that is, containing twice the concentration of all components) was added to the wells after incubation, and the plates were additionally incubated for 4 hours in an oxygen atmosphere at 37° C. During incubation, in wells with urease produced by live bacteria, urea is converted to ammonia and carbon dioxide, changing the pH of the solution and thus the colour of the phenol red indicator contained in the medium (from orange to purple).
(§5) All experiments were performed in triplicate.
(§6) Inhibition by PLP and its metabolic precursors of the growth of H. pylori strains: 26695, N6 and P12 in culture was investigated using the growth curve method as described in Example 3. From these experiments, the minimum inhibitory concentration was determined as the lowest concentration of a compound that inhibits the visible growth of the bacteria, compared to growth in control samples without the tested compounds. All experiments were carried out in triplicate.

For the next assay, the system named is H. pylori strain P12. Put plainly: Growth curve method / MIC, strain P12. Particulars: Helicobacter pylori. On the procedure:
as §1, §2, §3, §4, §5, §6

The test system of assay [1] is H. pylori strain M26 (MTZ + CLR resistant). Put plainly: Growth curve method / MIC, resistant strain M26. Particulars: Helicobacter pylori, strain M26, MTZ + CLR resistant. As for the experimental part:
as §1, §2, §3, §4, §5
The antibacterial activity of two compounds, mefloquine (in the form of hydrochloride) and quinine, described in the literature as potent in vitro inhibitors of the PNP enzyme from Plasmodium falciparum (Dziekan et al., 2019), was tested. Using a two-fold serial dilution method in liquid medium (as described in Example 3), the MIC values for mefloquine and quinine were determined against clinical H. pylori strains resistant to MTZ, CLR and MTZ+CLR (M26, M91, M92 and M93), as well as the reference H. pylori strain 26695. Four clinical H. pylori strains isolated from adults, from primary infections (the subjects had never previously been treated against H. pylori infection) were tested. These strains come from the collection of the Department of Microbiology of the Medical University of Wroclaw and were obtained due to collaboration with Prof. Grażyna Gościniak, MD, PhD. The tested compounds belong to organic substances and are soluble in DMSO. The maximum tested concentration of quinine in H. pylori culture was 0.56 mM, and that of mefloquine was 2.25 mM. […] On each occasion, the effect of DMSO alone on the growth of the H. pylori strains tested was also checked. […] Kanamycin was used as a positive control and Mili-Q deionised water as a negative control. All experiments were carried out in triplicate. […]

[2] abbreviates: strain 26695, wild-type, read-out: MIC (Table 7).
The mark [3] stands for this setting: strain N6, wild-type, read-out: MIC (Table 7).

Molecules are shown by their SMILES. ≈ marks a conversion by molar mass, not a printed value. Where “and” joins values, the source holds several entries; their conditions need not be identical. Equal values may be shown once. Read-outs that look alike come from different tables or passages of the source.

As for `Cc1ncc(CO)c(C=O)c1O.Cl` [PI-h, pyridoxal hydrochloride], the minimum inhibitory concentration (MIC) in the assay on H. pylori strain 26695 (setting [2]) was 2.5 µM; in the assay with H. pylori strain 26695 (strain 26695, read-out: MIC), 509 µg/mL and 2500 µM; in the assay with H. pylori strain N6 (setting [3]), 2.5 µM; in the assay on H. pylori strain N6 (strain N6, read-out: MIC) it was 509 µg/mL and 2500 µM; with H. pylori strain P12 (P12, read-out: MIC (Table 7)), 2.5 µM; in the assay with H. pylori strain P12 (strain P12, read-out: MIC) it was 509 µg/mL and 2500 µM. Besides, the MIC is 255 µg/mL and 1250 µM in assay [1] (read-out: MIC); 1.25 µM in assay [1] (read-out: MIC (Table 7)).

Regarding `Cc1ncc(COP(=O)(O)O)c(C=O)c1O` [PLP, pyridoxal 5′-phosphate], the MIC in the assay on H. pylori strain 26695 (setting [2]) was 2.5 µM (≈ 0.618 µg/mL); in the assay with H. pylori strain 26695 (strain 26695, read-out: MIC), 618 µg/mL and 2500 µM; in the assay with H. pylori strain N6 (setting [3]) it was 2.5 µM (≈ 0.618 µg/mL); in the assay with H. pylori strain N6 (strain N6, read-out: MIC), 618 µg/mL and 2500 µM; with H. pylori strain P12 (P12, read-out: MIC (Table 7)) it was 2.5 µM (≈ 0.618 µg/mL); in the assay on H. pylori strain P12 (strain P12, read-out: MIC), 618 µg/mL and 2500 µM. In addition, the MIC is 309 µg/mL and 1250 µM in assay [1] (read-out: MIC); 1.25 µM in assay [1] (read-out: MIC (Table 7)).

The values are drawn from patent US20250195498A1, “INHIBITOR OF CELLULAR PURINE NUCLEOTIDE SALVAGE PATHWAY ENZYME FOR USE IN THE TREATMENT AND/OR PREVENTION OF HELICOBACTER PYLORI INFECTION AND/OR DISEASE ASSOCIATED WITH SUCH INFECTION AND PHARMACEUTICAL COMPOSITION COMPRISING THE SAME” (UNIWERSYTET WARSZAWSKI, priority 2022, published 2025).
